Test results published in ChEMBL document CHEMBL1201862, “PubChem BioAssay data set” (2004).
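Assay format: 96-well plates, 48-hour exposure. The concentration for 50% growth inhibition is given as GI50.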 Activity calls are given as the source filed them. Cut-off read from the data, not from the text of the source: active = GI50 up to about 1.1 µM and inactive = higher.

Legend:
Assay in all cases: inhibition of tumour cell growth, NCI panel, 48 h
[1] = tested on: TK-10
[2] = tested on: HOP-62
[3] = tested on: UO-31
[4] = tested on: NCI-H226
[5] = tested on: HT-29
[6] = tested on: HCT-15
[7] = tested on: OVCAR-4
[8] = tested on: SK-OV-3
[9] = tested on: K562
[10] = tested on: 786-0
[11] = tested on: SN12C
[12] = tested on: COLO 205
[13] = tested on: SW-620
[14] = tested on: HOP-92
[15] = tested on: HCT-116
[16] = tested on: CCRF-CEM
[17] = tested on: NCI-H522

O=c1c2cc(Br)ccc2[nH]c(=S)n1-c1ccccc1
GI50 [1]: > 100 µM (inactive) | GI50 [2]: > 100 µM (inactive) | GI50 [3]: > 100 µM (inactive) | GI50 [4]: > 100 µM (inactive) | GI50 [5]: > 100 µM (inactive) | GI50 [6]: > 100 µM | GI50 [7]: > 100 µM (inactive) | GI50 [8]: > 100 µM (inactive) | GI50 [9]: > 100 µM (inactive) | GI50 [10]: > 100 µM (inactive) | GI50 [11]: > 100 µM (inactive) | GI50 [12]: > 100 µM (inactive) | GI50 [13]: > 100 µM (inactive) | GI50 [14]: > 100 µM (inactive) | GI50 [15]: > 100 µM (inactive) | GI50 [16]: > 100 µM (inactive)

COc1ccc(-c2c(N)[n+]([O-])c3cc(C)c(C)cc3[n+]2[O-])cc1OC
GI50 [1]: > 100 µM (inactive) | GI50 [2]: > 100 µM (inactive) | GI50 [3]: 54 µM (inactive) | GI50 [4]: > 100 µM (inactive) | GI50 [5]: 73.1 µM (inactive) | GI50 [6]: 48.6 µM | GI50 [7]: > 100 µM (inactive) | GI50 [17]: 17.5 µM (inactive) | GI50 [8]: > 100 µM (inactive) | GI50 [9]: 69.7 µM (inactive) | GI50 [10]: > 100 µM (inactive) | GI50 [11]: > 100 µM (inactive) | GI50 [12]: 22.3 µM (inactive) | GI50 [13]: 74.8 µM (inactive) | GI50 [16]: 78 µM (inactive)

CNS(=O)(=O)NN(C)S(=O)(=O)c1ccccc1
GI50 [1]: > 100 µM (inactive) | GI50 [2]: > 100 µM (inactive) | GI50 [3]: > 100 µM (inactive) | GI50 [4]: > 100 µM (inactive) | GI50 [5]: > 100 µM (inactive) | GI50 [6]: > 100 µM | GI50 [7]: > 100 µM (inactive) | GI50 [17]: > 100 µM (inactive) | GI50 [9]: > 100 µM (inactive) | GI50 [10]: > 100 µM (inactive) | GI50 [11]: > 100 µM (inactive) | GI50 [12]: > 100 µM (inactive) | GI50 [13]: > 100 µM (inactive) | GI50 [15]: > 100 µM (inactive) | GI50 [16]: > 100 µM (inactive)

CN(CC(=O)O)S(=O)(=O)c1ccc2ccccc2c1
GI50 [1]: > 100 µM (inactive) | GI50 [3]: > 100 µM (inactive) | GI50 [5]: > 100 µM (inactive) | GI50 [6]: > 100 µM | GI50 [7]: > 100 µM (inactive) | GI50 [17]: > 100 µM (inactive) | GI50 [8]: > 100 µM (inactive) | GI50 [9]: > 100 µM (inactive) | GI50 [10]: > 100 µM (inactive) | GI50 [11]: > 100 µM (inactive) | GI50 [12]: > 100 µM (inactive) | GI50 [13]: > 100 µM (inactive) | GI50 [14]: > 100 µM (inactive) | GI50 [16]: > 100 µM (inactive)

CC(Oc1ccc2c(-c3ccc(Cl)cc3)cc(=O)oc2c1)C(=O)O (stereo unspecified)
GI50 [1]: > 100 µM (inactive) | GI50 [2]: > 100 µM (inactive) | GI50 [3]: > 100 µM (inactive) | GI50 [4]: > 100 µM (inactive) | GI50 [5]: > 100 µM (inactive) | GI50 [7]: > 100 µM (inactive) | GI50 [17]: > 100 µM (inactive) | GI50 [8]: > 100 µM (inactive) | GI50 [9]: > 100 µM (inactive) | GI50 [10]: > 100 µM (inactive) | GI50 [11]: > 100 µM (inactive) | GI50 [12]: > 100 µM (inactive) | GI50 [13]: > 100 µM (inactive) | GI50 [14]: > 100 µM (inactive) | GI50 [15]: > 100 µM (inactive) | GI50 [16]: > 100 µM (inactive)

O=c1/c(=C/c2ccccc2[N+](=O)[O-])sc2nnc(-c3cccnc3)n12
GI50 [1]: > 100 µM (inactive) | GI50 [2]: > 100 µM (inactive) | GI50 [3]: > 100 µM (inactive) | GI50 [4]: > 100 µM (inactive) | GI50 [5]: > 100 µM (inactive) | GI50 [6]: > 100 µM | GI50 [7]: > 100 µM (inactive) | GI50 [9]: 74.1 µM (inactive) | GI50 [10]: > 100 µM (inactive) | GI50 [11]: > 100 µM (inactive) | GI50 [13]: 7.03 µM (inactive) | GI50 [14]: > 100 µM (inactive) | GI50 [15]: > 100 µM (inactive) | GI50 [16]: 55.8 µM (inactive)

CCOC(=O)NC(=O)c1cn(C(CC)COC(=O)NCCCCCCNC(=O)OCC(CC)n2cc(C(=O)NC(=O)OCC)c(=O)[nH]c2=O)c(=O)[nH]c1=O (stereo unspecified)
GI50 [2]: > 100 µM (inactive) | GI50 [3]: > 100 µM (inactive) | GI50 [4]: > 100 µM (inactive) | GI50 [5]: > 100 µM (inactive) | GI50 [6]: > 100 µM | GI50 [7]: > 100 µM (inactive) | GI50 [17]: > 100 µM (inactive) | GI50 [8]: > 100 µM (inactive) | GI50 [9]: > 100 µM (inactive) | GI50 [10]: > 100 µM (inactive) | GI50 [11]: > 100 µM (inactive) | GI50 [12]: > 100 µM (inactive) | GI50 [13]: > 100 µM (inactive) | GI50 [15]: > 100 µM (inactive) | GI50 [16]: > 100 µM (inactive)

O=c1n(-c2ccccc2)c(=O)n2n1C1C=CC2C2C(C1)C2(Cl)Cl (stereo unspecified)
GI50 [1]: > 100 µM (inactive) | GI50 [2]: > 100 µM (inactive) | GI50 [3]: > 100 µM (inactive) | GI50 [4]: > 100 µM (inactive) | GI50 [6]: > 100 µM | GI50 [7]: > 100 µM (inactive) | GI50 [17]: > 100 µM (inactive) | GI50 [8]: > 100 µM (inactive) | GI50 [9]: > 100 µM (inactive) | GI50 [10]: > 100 µM (inactive) | GI50 [11]: > 100 µM (inactive) | GI50 [12]: > 100 µM (inactive) | GI50 [13]: > 100 µM (inactive) | GI50 [15]: > 100 µM (inactive) | GI50 [16]: > 100 µM (inactive)

COc1ccc2ccc3c(c2c1)CN1CCc2cc(OC)c(OC)cc2C1C3 (stereo unspecified)
GI50 [1]: > 100 µM (inactive) | GI50 [2]: > 100 µM (inactive) | GI50 [3]: > 100 µM (inactive) | GI50 [4]: > 100 µM (inactive) | GI50 [5]: > 100 µM (inactive) | GI50 [6]: > 100 µM | GI50 [7]: > 100 µM (inactive) | GI50 [17]: > 100 µM (inactive) | GI50 [8]: > 100 µM (inactive) | GI50 [9]: > 100 µM (inactive) | GI50 [10]: > 100 µM (inactive) | GI50 [11]: > 100 µM (inactive) | GI50 [12]: > 100 µM (inactive) | GI50 [13]: > 100 µM (inactive) | GI50 [14]: > 100 µM (inactive) | GI50 [16]: > 100 µM (inactive)
